Data from patent US20210193322A1, “NETWORK METHODS FOR NEURODEGENERATIVE DISEASES” (Genting TauRx Diagnostic Centre SDN BHD, priority 2018, published 2021).

Assays:
[1] = system: AD diagnosed patients; assay: Structural correlation network analysis (MRI cortical thickness and surface area correlation matrices, node degree) in AD patients; assay type: in vivo, human
[2] = system: bvFTD; details: cited from earlier work

| SMILES | number of inverse/compensatory non-homologous cortical thickness correlations compared with healthy elderly controls ([1]; 54 AD patients with CDR 0.5 only, baseline and week 65, LMTM 8 mg/day monotherapy, vs 202 healthy elderly, FIGS. 27A-27D) | number of inverse/compensatory non-homologous surface area correlations compared with healthy elderly controls ([1]; 54 AD patients with CDR 0.5 only, baseline and week 65, LMTM 8 mg/day monotherapy, vs 202 healthy elderly, FIGS. 28A-28D) | cortical thickness networks compared with healthy elderly controls ([1]; 96 AD patients (CDR 0.5, 1 or 2), baseline and week 65, LMTM 8 mg/day monotherapy, vs 202 healthy elderly, FIGS. 25A-25D) | surface area networks compared with healthy elderly controls ([1]; 96 AD patients (CDR 0.5, 1 or 2), baseline and week 65, LMTM 8 mg/day monotherapy, vs 202 healthy elderly, FIGS. 26A-26D) | compensatory network correlations (especially non-homologous, positive and inverse correlations) ([1]; summary statement) | cortical thickness correlations, within-lobe (positive) and between-lobe compensatory (inverse) ([1]; week 65 vs baseline, LMTM 8 mg/day monotherapy, 96 AD patients, FIGS. 21A-21B) | surface area correlations, within-lobe (positive) and between-lobe compensatory (inverse) ([1]; week 65 vs baseline, LMTM 8 mg/day monotherapy, 96 AD patients, FIGS. 23A-23B) | effect on cortical thickness structural correlation networks (correlation matrix) ([1]; week 65 vs baseline, LMTM 8 mg/day with symptomatic AD treatments (ach1), 445 AD patients, FIGS. 19A-19B) | effect on non-homologous inter-lobar node degree (cortical thickness and surface area, positive and inverse correlations) ([1]; week 65 vs week 0, LMTM 8 mg/day as add-on, ach1 group, FIGS. 20A-20D) | number of positive and inverse non-homologous cortical thickness correlations (inter-lobar node degree) ([1]; week 65 vs week 0, LMTM 8 mg/day monotherapy, ach0 group, FIGS. 22A-22B) | number of positive and inverse/compensatory surface area correlations (non-homologous inter-lobar node degree) ([1]; week 65 vs week 0, LMTM 8 mg/day monotherapy, ach0 group, FIGS. 24A-24B) | treatment benefit in bvFTD [2] |
| --- | --- | --- | --- | --- | --- | --- | --- | --- | --- | --- | --- | --- |
| CN(C)c1ccc2c(c1)Sc1cc(N(C)C)ccc1N2 [LMTM, leuco-methylthioninium bis(hydromethanesulfonate)] | equivalent to the normal elderly controls | either equivalent to or lower than normal elderly controls | brings the cortical thickness networks closer to normal | normalizes surface area networks | reduce compensatory network correlations | major reduction in thickness correlations | significant reductions in surface area correlations | minimal effect | minimal overall effect | significant reduction | significant reduction | – |
| CC12CC3CC(C)(C1)CC(N)(C3)C2 [memantine] | – | – | – | – | – | – | – | – | – | – | – | no treatment benefit |
